From patent US12606541B2, “PPARg modulators and methods of use” (Eisai R&D Management Co., Ltd., priority 2020, dated 2026) come the findings set out here.

Where two headings read alike, the source gives them in different places.

The test system of one assay is UM-UC-9 engineered cells. Nature of the assay: Cell proliferation / short-term viability assay, CellTiter-Glo 144 h. Conditions: read-out: CTGlo 144 h UMUC9.5, G150. It counts as cell-based, human. The method in brief:
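Viability read by CellTiter-Glo 2.0 luminescence at day 7 versus DMSO-vehicle wells and a T0 plate measured on day 0. Cells: UM-UC-9 engineered assay-ready stocks, 500 cells/well in high-glucose DMEM with 10% FBS, 37° C, 5% CO2.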
(In general: Cellular ATP, detected with luciferase, serves as a proxy for viable cell number.)

Another assay deals with T1, His6-TEV-PPARγ-(234-505) (Homo sapiens, UniProt P37231).
T1 construct: The His6-TEV-PPARγ-(234-505) protein for assay was expressed and purified; TEV cleavage site (N); made in house
T1 sequence (P37231 234-505): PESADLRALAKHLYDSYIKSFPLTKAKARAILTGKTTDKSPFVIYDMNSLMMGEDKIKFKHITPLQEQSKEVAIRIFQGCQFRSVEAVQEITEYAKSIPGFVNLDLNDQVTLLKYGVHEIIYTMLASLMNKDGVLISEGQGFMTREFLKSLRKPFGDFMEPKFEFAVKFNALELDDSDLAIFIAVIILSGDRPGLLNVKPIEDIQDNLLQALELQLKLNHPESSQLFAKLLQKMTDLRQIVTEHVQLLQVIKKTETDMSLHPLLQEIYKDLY
Nature of the assay: TR-FRET Assay to Measure Co-R Peptide Recruitment to PPARγ. The conditions noted are these: Co-R peptide (SMRT-ID2) recruitment, top final concentration 20 μM, read-out: TR-FRET i-Ag, AC50. It counts as biochemical. The method in brief: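 Corepressor recruitment is measured by adding terbium-labeled anti-His antibody and FITC SMRT-ID2 peptide, at 5 and 200 nM final, after a 20-minute room-temperature protein–compound incubation. After one further hour, signal is converted to percent response between DMSO and 500 nM T0070907 wells.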

Turning to `COc1cc(-c2cc(C(=O)N3CCC(C(=O)NC4CCOc5ncccc54)CC3)n[nH]2)c(Cl)cn1` (racemic) [Example 236, 1-(5-(5-chloro-2-methoxypyridin-4-yl)-1H-pyrazole-3-carbonyl)-N (3,4-dihydro-2H-pyrano[2,3-b]pyridin-4-yl)piperidine-4-carboxamide], the IC50 with UM-UC-9 engineered cells (Homo sapiens, UM-UC-9, 144 h) worked out at 5360 nM. Also, the AC50 on His6-TEV-PPARγ-(234-505) came to 466 nM.
The corresponding values for `COc1cc(-c2cc(C(=O)N3CCC(C(=O)NC4C(=O)N(C)Cc5ccccc54)CC3)n[nH]2)c(Cl)cn1` (racemic) [Example 240, 1-(5-(5-chloro-2-methoxypyridin-4-yl)-1H-pyrazole-3-carbonyl)-N-(2-methyl-3-oxo-1,2,3,4-tetrahydroisoquinolin-4-yl)piperidine-4-carboxamide] are 6050 nM and 708 nM.
As for `COc1cc(-c2cc(C(=O)N3CCC(C(=O)NC4C(=O)NCc5ccccc54)CC3)n[nH]2)c(Cl)cn1` (racemic) [Example 244, 1-(5-(5-chloro-2-methoxypyridin-4-yl)-1H-pyrazole-3-carbonyl)-N-(3-oxo-1,2,3,4-tetrahydroisoquinolin-4-yl)piperidine-4-carboxamide], in the assay on UM-UC-9 engineered cells (Homo sapiens, UM-UC-9, 144 h), the IC50 worked out at 5560 nM. Also, the AC50 on His6-TEV-PPARγ-(234-505) came to 605 nM.
The corresponding values for `COc1cc(-c2cc(C(=O)N3CCC(C(=O)NC4CCN(c5ccc(F)cc5)C4)CC3)n[nH]2)c(Cl)cn1` (racemic) [Example 253, 1-(5-(5-chloro-2-methoxypyridin-4-yl)-1H-pyrazole-3-carbonyl)-N-(1-(4-fluorophenyl)pyrrolidin-3-yl)piperidine-4-carboxamide] are 387 nM and 51 nM.
The corresponding values for `COc1cc(-c2cc(C(=O)N3CCC(C(=O)NCc4cccc(Cl)c4)CC3(C)C)n[nH]2)c(Cl)cn1` (racemic) [Example 255] are 151 nM and 63.3 nM.
In the case of `COc1cc(-c2cc(C(=O)N3CCC(C(=O)NC(C)c4ccc5[nH]nc(C)c5c4)CC3)n[nH]2)c(F)cn1` (racemic) [Example 281, 1-(5-(5-fluoro-2-methoxypyridin-4-yl)-1H-pyrazole-3-carbonyl)-N-(1-(3-methyl-1H-indazol-5-yl)ethyl)piperidine-4-carboxamide], the IC50 in the assay with UM-UC-9 engineered cells (Homo sapiens, UM-UC-9, 144 h) came out at 632 nM. At His6-TEV-PPARγ-(234-505), the AC50 came to 101 nM.
Regarding `COc1cc(-c2cc(C(=O)N3[C@@H]4CC[C@H]3C[C@H](C(=O)NC3CCC(O)(C(F)(F)C(F)(F)F)CC3)C4)n[nH]2)c(F)cn1` (mixture of isomers) [Example 301, (1R,3s,5S)-8-(5-(5-fluoro-2-methoxypyridin-, 1-yl)-1H-pyrazole-3-carbonyl)-N-(4-hydroxy-4-(perfluoroethyl)cyclohexyl)-8-azabicyclo[3.2.1]octane-3-carboxamide], in the assay with UM-UC-9 engineered cells (Homo sapiens, UM-UC-9, 144 h), the IC50 was determined as 74.8 nM. Further, the AC50 on His6-TEV-PPARγ-(234-505) was 15.9 nM.
As to `COc1cc(-c2cc(C(=O)N3CCC(C(=O)Nc4c(F)ccc5ccnn45)CC34CC4)n[nH]2)c(F)cn1` (racemic) [Example 468, (R)-4-(5-(5-fluoro-2-methoxypyridin-4-yl)-1H-pyrazole-3-carbonyl)-N-(6-fluoropyrazolo[1,5-a]pyridin-7-yl)-4-azaspiro[2.5]octane-7-carboxamide and (S)-4-(5-(5-fluoro-2-methoxypyridin-4-yl)-1H-pyrazole-3-carbonyl)-N-(6-fluoropyrazolo[1,5-a]pyridin-7-yl)-4-azaspiro[2.5]octane-7-carboxamide], the IC50 in the assay on UM-UC-9 engineered cells was 80 nM. Also, the AC50 at His6-TEV-PPARγ-(234-505) amounted to 8.3 nM.
`O=C(NCc1ncc(F)cc1Cl)C1CCN(C(=O)c2cc(-c3cc(C4CC4)ncc3F)[nH]n2)C2(CC2)C1` (racemic) [Example 480, (S)—N-((3-chloro-5-fluoropyridin-2-yl)methyl)-4-(5-(2-cyclopropyl-5-fluoropyridin-4-yl)-1H-pyrazole-3-carbonyl)-4-azaspiro[2.5]octane-7-carboxamide and (R)—N-((3-chloro-5-fluoropyridin-2-yl)methyl)-4-(5-(2-cyclopropyl-5-fluoropyridin-4-yl)-1H-pyrazole-3-carbonyl)-4-azaspiro[2.5]octane-7-carboxamide]: the IC50 with UM-UC-9 engineered cells came out at 371 nM. Also, at His6-TEV-PPARγ-(234-505), the AC50 is 17.6 nM.
The corresponding values for `CCc1cc(-c2cc(C(=O)N3CCC(C(=O)NCc4ncc(F)cc4Cl)CC34CC4)n[nH]2)c(F)cn1` (racemic) [Example 483, (S)—N-((3-chloro-5-fluoropyridin-2-yl)methyl)-4-(5-(2-ethyl-5-fluoropyridin-4-yl)-1H-pyrazole-3-carbonyl)-4-azaspiro[2.5]octane-7-carboxamide and (R)—N-((3-chloro-5-fluoropyridin-2-yl)methyl)-4-(5-(2-ethyl-5-fluoropyridin-4-yl)-1H-pyrazole-3-carbonyl)-4-azaspiro[2.5]octane-7-carboxamide] are 44.5 nM and 6.2 nM.
For `COc1cnc(CNC(=O)C2CCN(C(=O)c3cc(-c4cc(C)ncc4F)[nH]n3)C3(CC3)C2)c(Cl)c1` (racemic) [Example 484, (S)—N-((3-chloro-5-methoxypyridin-2-yl)methyl)-4-(5-(5-fluoro-2-methylpyridin-4-yl)-1H-pyrazole-3-carbonyl)-4-azaspiro[2.5]octane-7-carboxamide and (R)—N-((3-chloro-5-methoxypyridin-2-yl)methyl)-4-(5-(5-fluoro-2-methylpyridin-4-yl)-1H-pyrazole-3-carbonyl)-4-azaspiro[2.5]octane-7-carboxamide], in the assay on UM-UC-9 engineered cells, the IC50 was found to be 20.5 nM. The AC50 on His6-TEV-PPARγ-(234-505) worked out at 3.8 nM.
For the compound `COc1cc(-c2cc(C(=O)N3CC[C@H](C(=O)N[C@H]4CC[C@@](O)(C(F)(F)F)CC4)CC34CCC4)n[nH]2)c(F)cn1` (racemic) [Example 486, (S)-5-(5-(5-fluoro-2-methoxypyridin-4-yl)-1H-pyrazole-3-carbonyl)-N-((1r,4S)-4-hydroxy-4-(trifluoromethyl)cyclohexyl)-5-azaspiro[3.5]nonane-8-carboxamide and (R)-5-(5-(5-fluoro-2-methoxypyridin-4-yl)-1H-pyrazole-3-carbonyl)-N-((1r,4R)-4-hydroxy-4-(trifluoromethyl)cyclohexyl)-5-azaspiro[3.5]nonane-8-carboxamide], in the assay on UM-UC-9 engineered cells (Homo sapiens, UM-UC-9, 144 h), the IC50 was determined as 44.5 nM. Besides, the AC50 on His6-TEV-PPARγ-(234-505) was determined as 5.2 nM.
The corresponding values for `Cc1cc(-c2cc(C(=O)N3CC[C@H](C(=O)NCc4ncccc4C4CC4)CC34CC4)[nH]n2)c(F)cn1` (racemic) [Example 506, (S)—N-((3-cyclopropylpyridin-2-yl)methyl)-4-(3-(5-fluoro-2-methylpyridin-4-yl)-1H-pyrazole-5-carbonyl)-4-azaspiro[2.5]octane-7-carboxamide and (R)—N-((3-cyclopropylpyridin-2-yl)methyl)-4-(3-(5-fluoro-2-methylpyridin-4-yl)-1H-pyrazole-5-carbonyl)-4-azaspiro[2.5]octane-7-carboxamide] are 20.6 nM and 10.3 nM.
Regarding `N#Cc1cc(-c2cc(C(=O)N3CCC(C(=O)NC4CCC(O)(C(F)(F)F)CC4)CC34CC4)n[nH]2)ncn1` (racemic) [Example 528, (R)-4-(5-(6-cyanopyrimidin-4-yl)-1H-pyrazole-3-carbonyl)-N-((1r,4R)-4-hydroxy-4-(trifluoromethyl)cyclohexyl)-4-azaspiro[2.5]octane-7-carboxamide and (S)-4-(5-(6-cyanopyrimidin-4-yl)-1H-pyrazole-3-carbonyl)-N-((1r,4S)-4-hydroxy-4-(trifluoromethyl)cyclohexyl)-4-azaspiro[2.5]octane-7-carboxamide], the IC50 in the assay on UM-UC-9 engineered cells was determined as 479 nM. The AC50 on His6-TEV-PPARγ-(234-505) turned out to be 6 nM.
Take `COc1cc(-c2cc(C(=O)N3CCC(C(=O)NC4CCC(C)CC4)CC3)n[nH]2)c(Cl)cn1` (single isomer, unassigned) [Example 101-B]: the IC50 in the assay on UM-UC-9 engineered cells (listed as 101b) worked out at 84 nM. The AC50 on His6-TEV-PPARγ-(234-505) came to 9.2 nM.
Turning to `CC[C@H]1CC[C@@H](NC(=O)C2CCN(C(=O)c3cc(-c4ccnc(OC)c4)[nH]n3)CC2)CC1` (single isomer, unassigned) [Example 108-A, N-((1s,4s)-4-ethylcyclohexyl)-1-(5-(2-methoxypyridin-4-yl)-1H-pyrazole-3-carbonyl)piperidine-4-carboxamide], in the assay on UM-UC-9 engineered cells (Homo sapiens, UM-UC-9, 144 h), the IC50 was 674 nM. For the same compound, the AC50 on His6-TEV-PPARγ-(234-505) was found to be 160 nM.
Consider `COc1cc(-c2[nH]nc(C(=O)N3CCC(C(=O)NC4CCC(C)CC4)CC3)c2Cl)ccn1` (single isomer, unassigned) [Example 110-A], for which, in the assay with UM-UC-9 engineered cells (listed as 110a), the IC50 stood at 3190 nM. In addition, at His6-TEV-PPARγ-(234-505) (listed as 110a), the AC50 was 2160 nM.
`COc1cc(-c2[nH]nc(C(=O)N3CCC(C(=O)NC4CCC(C)CC4)CC3)c2Cl)ccn1` (single isomer, unassigned) [Example 110-B]: the IC50 in the assay on UM-UC-9 engineered cells (listed as 110b) came to 697 nM. Further, the AC50 on His6-TEV-PPARγ-(234-505) (listed as 110b) was found to be 217 nM.
